Measured values published in PubChem BioAssay (NCI).
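Interpolation was linear, between the two tested concentrations surrounding the appropriate level; five concentrations were tested over 48 hours in 96-well plates. Definition used: TGI = concentration required for complete inhibition of growth.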

Tested on: SN12K1 renal
Experiment: inhibition of tumour cell growth, NCI panel, 48 h

Structure (SMILES) | TGI [µM]
COC1/C=C/O[C@@]2(C)Oc3c(C)c(O)c4c(O)c(cc(O)c4c3C2=O)NC(=O)/C(C)=C\C=C\[C@H](C)C(O)[C@@H](C)[C@@H](O)[C@@H](C)[C@H](OC(C)=O)[C@@H]1C (some centres not stated) | 33.5
O=C(Cn1ccnc1[N+](=O)[O-])N(CCO)CCO | > 1250
